Drawing on ChEMBL document CHEMBL2074516, “cDNA structure, genomic organization, and promoter analysis of the mouse intestinal peptide transporter PEPT1” (Biochim Biophys Acta, 2000), this text covers Activity for one compound.

Where a SMILES comes first, the peptide text is derived from it. [ ]: non-standard residue; d: D form. Sar = CNCC(=O)O

In assay [1] the target is T1, Solute carrier family 15 member 1 (Mus musculus) (UniProt Q9JIP7).
T1 sequence (whole entry): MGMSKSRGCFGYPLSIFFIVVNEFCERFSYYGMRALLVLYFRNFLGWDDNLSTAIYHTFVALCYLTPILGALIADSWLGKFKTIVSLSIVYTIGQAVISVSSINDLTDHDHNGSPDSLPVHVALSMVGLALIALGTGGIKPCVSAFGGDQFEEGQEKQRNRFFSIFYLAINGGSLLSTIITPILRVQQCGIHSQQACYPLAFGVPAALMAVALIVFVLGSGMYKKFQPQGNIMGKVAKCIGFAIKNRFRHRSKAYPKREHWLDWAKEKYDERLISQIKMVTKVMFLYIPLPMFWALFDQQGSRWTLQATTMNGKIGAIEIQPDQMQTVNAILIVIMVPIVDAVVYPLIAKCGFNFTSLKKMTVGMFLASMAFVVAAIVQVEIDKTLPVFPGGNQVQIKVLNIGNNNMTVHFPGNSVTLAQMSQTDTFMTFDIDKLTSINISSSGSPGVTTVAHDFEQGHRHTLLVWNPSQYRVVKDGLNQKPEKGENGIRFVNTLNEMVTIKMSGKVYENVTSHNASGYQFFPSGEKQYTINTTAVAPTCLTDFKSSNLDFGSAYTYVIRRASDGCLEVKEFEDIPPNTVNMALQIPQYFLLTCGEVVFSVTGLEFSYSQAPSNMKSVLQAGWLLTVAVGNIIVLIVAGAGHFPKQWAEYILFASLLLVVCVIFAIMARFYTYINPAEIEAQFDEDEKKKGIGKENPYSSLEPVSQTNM
Nature of the assay: TP_TRANSPORTER: uptake in Xenopus laevis oocytes. In kind it is functional, cell-based. The conditions noted are these: Oocyte.

Assay [2] has as its target T1, Solute carrier family 15 member 1 (Mus musculus). Nature of the assay: TP_TRANSPORTER: uptake in PEPT1-expressing HRPE cells. It counts as functional, cell-based.

`CN(CC(=O)O)C(=O)CN` (H-Gly-[Sar]-OH): the Activity entry in assay [1] and in assay [2] was “substrate [+]” in each case.
